The values below come from patent US4603142A, “Cholesterol lowering method of use” (Wisconsin Alumni Research Foundation, priority 1984, dated 1986).

Each structure is given as a SMILES string.

In the test the target is T1, β-hydroxy-β-methylglutaryl-CoA reductase (Homo sapiens, UniProt P04035).
T1 construct: ISOLATED HEPATOCYTES OF CHICKEN; endogenous in cells; host or cells: isolated hepatocytes of chicken
T1 sequence (P04035 1-888): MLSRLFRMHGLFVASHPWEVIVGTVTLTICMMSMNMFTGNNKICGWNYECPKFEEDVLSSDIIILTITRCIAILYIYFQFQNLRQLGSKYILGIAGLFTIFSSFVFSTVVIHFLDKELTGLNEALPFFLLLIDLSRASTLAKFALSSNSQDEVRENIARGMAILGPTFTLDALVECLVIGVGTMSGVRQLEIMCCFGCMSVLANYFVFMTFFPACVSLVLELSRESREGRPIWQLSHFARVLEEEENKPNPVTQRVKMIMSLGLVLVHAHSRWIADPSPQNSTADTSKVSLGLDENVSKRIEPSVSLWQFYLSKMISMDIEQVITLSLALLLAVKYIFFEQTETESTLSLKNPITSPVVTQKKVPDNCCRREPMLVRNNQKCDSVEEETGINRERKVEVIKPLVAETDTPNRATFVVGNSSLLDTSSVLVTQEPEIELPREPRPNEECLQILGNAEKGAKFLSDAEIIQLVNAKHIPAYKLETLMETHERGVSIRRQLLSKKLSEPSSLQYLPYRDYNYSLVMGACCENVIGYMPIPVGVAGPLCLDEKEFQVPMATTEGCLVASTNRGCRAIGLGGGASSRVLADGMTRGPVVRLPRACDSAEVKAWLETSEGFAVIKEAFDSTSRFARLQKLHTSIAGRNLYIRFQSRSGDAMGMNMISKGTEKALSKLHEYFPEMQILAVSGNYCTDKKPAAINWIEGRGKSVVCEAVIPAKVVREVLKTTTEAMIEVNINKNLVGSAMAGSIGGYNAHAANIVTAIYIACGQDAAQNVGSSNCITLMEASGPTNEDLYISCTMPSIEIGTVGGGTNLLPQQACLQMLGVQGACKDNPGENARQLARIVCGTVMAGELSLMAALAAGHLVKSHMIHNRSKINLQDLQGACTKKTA
Kind of test: In vitro HMG-CoA reductase activity in isolated hepatocytes of chicken. In kind it is cell-based. The conditions noted are these: incubation 15 minutes; for β-Hydroxy-β Methylglutaryl-CoA Reductase: means of two replicates. The text has this: These observed effects on lipogensis and cholesterogenesis could be attributed to the chemical constituents of HPBF, but clearly could not be attributed to the water insoluble plant fibers because they were not present in the latter feeding trials. Moreover, these effects were also obtained in vitro using isolated hepatocytes from chickens and rats. […] Proc. 42:1973 (Abstr.)]. Conditions for the in vitro evaluation of the solvent extracts have been described [Qureshi AA et al. (1983): Inhibition of cholesterol and fatty acid biosynthesis in liver enzymes and chicken hepatocytes by polar fractions of garlic, Lipids 18:343-348].
Cholesterol inhibitor I was re-chromatographed by HPLC and the UV absorption spectrum obtained. Maximum absorption occurred at 292 nm. This purified fraction was used for high resolution mass spectrometric analysis. Several scans were made using ionization temperatures from 90-180 degrees Centigrade to increase the possibility of detecting impurities. The high resolution mass spectrometric analysis and measurements of different peaks gave a molecular ion peak at m/e 424 and main peaks at m/e 385, 205 and 165 corresponding to C29 H44 O2 (molecular formula) C25 H36 O2, C13 H17 O2 and C10 H13 O2 moieties, respectively, which are characteristic fragmentation moieties for d-alpha-tocotrienol. Lemon grass oil is a rich source of d-alpha-tocotrienol. This product and cholesterol inhibitor I at 20 ppm were compared with the petroleum ether soluble fraction of HPBF (20% equivalent HPBF) in a group of older male White Leghorn chickens (Table 3). The results shown on Table 3 confirm those previously recorded for petroleum ether solubles of HPBF and cholestrol inhibitor I. In a final experiment, the effects of cholestrol inhibitor I and lemon grass oil on hepatocyte HMG Co-A reductase and FAS activities were tested. Both components tested in the concentration range 5-100 microgram/ml, produced a concentration-dependent suppression of HMG Co-A reductase and concentration-dependent enhancement of FAS activity (Table 4).
^1 Tenweek-old female chickens were fed standard cornsoy diet. They
were fasted for 48 hrs. and refed 72 hrs. prior to the preparation of
^2 Incubation period was 15 minutes. Values represent means of two
replicates within incubation set.
^3 pmoles of mevalonic acid synthesized per minute per mg of […]

On to `CC(C)=CCC/C(C)=C/CC/C(C)=C/CC[C@]1(C)CCc2c(C)c(O)c(C)c(C)c2O1` [Cholesterol inhibitor I, 2,5,7,8-tetramethyl-2 (4,8, 12-trimethyltrideca-3,7, 11-trienyl)chroman-6-ol], for which the “β-Hydroxy-β Methylglutaryl-CoA Reductase” value reads like this: (5 μg/ml) 45 pmoles of mevalonic acid synth; (10 μg/ml) 40 pmoles of mevalonic acid synth; (15 μg/ml) 31 pmoles of mevalonic acid synth; (20 μg/ml) 30 pmoles of mevalonic acid synth; (25 μg/ml) 28 pmoles of mevalonic acid synth; (50 μg/ml) 22 pmoles of mevalonic acid synth. Further, the “β-Hydroxy-β Methylglutaryl-CoA Reductase” value (100 μg/ml) is 23 pmoles of mevalonic acid synth. For the same molecule, the remaining activity at 5 µg/mL (0.25 h, 5 μg/ml, read-out: β-Hydroxy-β Methylglutaryl-CoA Reductase, percentage of control) stood at 87%. Where the note is “0.25 h, 10 μg/ml, read-out: β-Hydroxy-β Methylglutaryl-CoA Reductase, percentage of control”, the remaining activity at 10 µg/mL worked out at 77%. For the same molecule, the remaining activity at 15 µg/mL (0.25 h, 15 μg/ml, read-out: β-Hydroxy-β Methylglutaryl-CoA Reductase, percentage of control) is 60%. Further, the remaining activity at 20 µg/mL (0.25 h, 20 μg/ml, read-out: β-Hydroxy-β Methylglutaryl-CoA Reductase, percentage of control) was 57%. Moreover, the remaining activity at 25 µg/mL (0.25 h, 25 μg/ml, read-out: β-Hydroxy-β Methylglutaryl-CoA Reductase, percentage of control) amounted to 54%. Besides, the remaining activity at 50 µg/mL (0.25 h, 50 μg/ml, read-out: β-Hydroxy-β Methylglutaryl-CoA Reductase, percentage of control) is 42%. Further, for the setting “0.25 h, 100 μg/ml, read-out: β-Hydroxy-β Methylglutaryl-CoA Reductase, percentage of control”, the remaining activity at 100 µg/mL worked out at 44%.
